The results in this text go back to patent US8119635B2, “Diazabicyclic central nervous system active agents” (Abbott Laboratories, priority 2000, dated 2012).

Experiment [1] relates to Male Sprague-Dawley rats. Briefly: Formalin test (analgesia). Format: in vivo. Conditions: Rattus norvegicus, ip, intraperitoneally 5 minutes before injection of 50 μL 5% formalin into rear paw, nocifensive behaviors, read-out: (MED) minimally effective dose, formalin test. The procedure:
Another in vivo protocol utilized to determine the effectiveness of nicotinic acetylcholine receptor ligands as analgesic agents was the formalin test.
Male Sprague-Dawley rats (Charles River, Portage, Mich.) weighing 200 to 400 grams were used for all experiments. After a 20 minute period of acclimation to individual cages, 50 μL of a 5% formalin solution was injected subcutaneous into the dorsal aspect of one of the rear paws and the rats were then returned to the clear observation cages suspended above mirror panels. […] Phase 1 of the formalin test was defined as the period of time immediately after injection of formalin until 10 minutes after the formalin injection (i.e., 0-10 minutes after formalin). Phase 2 was defined as the 20 minute period from 30 to 50 minutes after formalin injection. The investigator recorded nocifensive behaviors in the injected paw of four animals during the session by observing each animal for one 15 second observation period during each 1 minute interval. Nocifensive behaviors recorded included flinching, licking or biting the injected paw. In dose-response studies, the test compound (or saline) was administered intraperitoneally 5 minutes before injection of formalin.

The target of experiment [2] is T1, neuronal nicotinic acetylcholine receptors (Rattus norvegicus, UniProt P09483+P12390).
T1 construct: crude synaptic membrane preparations from whole rat brain; from tissue; host or cells: whole rat brain, crude synaptic membranes
T1 sequence (P09483 31-630): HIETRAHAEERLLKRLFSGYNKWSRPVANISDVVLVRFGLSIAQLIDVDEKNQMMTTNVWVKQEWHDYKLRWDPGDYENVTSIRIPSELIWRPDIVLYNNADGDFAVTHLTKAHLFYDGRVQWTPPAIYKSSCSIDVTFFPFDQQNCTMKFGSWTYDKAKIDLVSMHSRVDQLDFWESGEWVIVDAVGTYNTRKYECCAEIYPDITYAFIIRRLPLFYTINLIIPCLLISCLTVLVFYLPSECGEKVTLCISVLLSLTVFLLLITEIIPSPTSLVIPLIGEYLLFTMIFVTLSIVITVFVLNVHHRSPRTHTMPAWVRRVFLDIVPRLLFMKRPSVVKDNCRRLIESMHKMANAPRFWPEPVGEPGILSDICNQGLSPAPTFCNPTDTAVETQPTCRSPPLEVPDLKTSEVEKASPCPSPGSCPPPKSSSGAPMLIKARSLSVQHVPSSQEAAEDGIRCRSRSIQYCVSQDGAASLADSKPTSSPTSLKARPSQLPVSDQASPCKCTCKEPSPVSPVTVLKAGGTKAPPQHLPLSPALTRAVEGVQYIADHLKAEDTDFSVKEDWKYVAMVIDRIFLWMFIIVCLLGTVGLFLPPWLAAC
T1 sequence (P12390 25-500): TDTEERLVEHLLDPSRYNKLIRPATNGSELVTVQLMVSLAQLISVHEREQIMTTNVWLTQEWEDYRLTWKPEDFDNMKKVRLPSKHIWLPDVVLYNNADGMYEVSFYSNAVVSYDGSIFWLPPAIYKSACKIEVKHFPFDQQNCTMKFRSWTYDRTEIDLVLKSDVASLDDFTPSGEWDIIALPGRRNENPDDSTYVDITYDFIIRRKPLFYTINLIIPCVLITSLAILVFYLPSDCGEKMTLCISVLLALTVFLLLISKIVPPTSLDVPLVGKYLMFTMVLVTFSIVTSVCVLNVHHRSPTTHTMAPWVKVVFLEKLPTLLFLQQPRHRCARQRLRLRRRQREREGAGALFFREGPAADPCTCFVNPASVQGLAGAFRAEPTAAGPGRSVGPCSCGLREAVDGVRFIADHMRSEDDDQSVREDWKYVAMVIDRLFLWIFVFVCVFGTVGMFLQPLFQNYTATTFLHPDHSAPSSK
Briefly: Binding of [3H]-cytisine to neuronal nicotinic acetylcholine receptors, crude synaptic membranes from whole rat brain. The procedure:
The In Vitro protocols for determination of nicotinic acetylcholine channel receptor binding potencies of ligands were determined as follows.
Washed membranes were stored at −80° C. prior to use. Frozen aliquots were slowly thawed and resuspended in 20 volumes of buffer (containing: 120 mM NaCl, 5 mM KCl, 2 mM MgCl2, 2 mM CaCl2 and 50 mM Tris-Cl, pH 7.4 @[…]). After centrifuging at 20,000×g for 15 minutes, the pellets were resuspended in 30 volumes of buffer.
The test compounds were dissolved in water to make 10 mM stock solutions. Each solution was then diluted (1:100) with buffer (as above) and further taken through seven serial log dilutions to produce test solutions from 10^−5 to 10^−11 M.
Samples were incubated for 60 minutes at 4° C., then rapidly filtered through Whatman GF/B filters presoaked in 0.5% polyethyleneimine using 3×4 mL of ice-cold buffer. The filters are counted in 4 mL of Ecolume® (ICN). Nonspecific binding was determined in the presence of 10 μM (−)-nicotine and values were expressed as a percentage of total binding. IC50 values were determined with the RS-1 (BBN) nonlinear least squares curve-fitting program and IC50 values were converted to Ki values using the Cheng and Prusoff correction (Ki=IC50/(1+[ligand]/Kd of ligand).

[3] abbreviates: [3H]-CYT 1.25 nM, whole rat brain membranes, 60 minutes at 4° C., IC50 converted to Ki by Cheng and Prusoff correction, read-out: Average Ki.

Counter-ions that a name gives are not always drawn. Like-named read-outs stand apart in the source and are kept apart here. Some results are limits rather than exact numbers.

Regarding `C=Cc1cc(N2C[C@@H]3CNC[C@@H]32)cnc1Br` [Example 72, (1S,5R)-6-(6-bromo-5-vinyl-3-pyridinyl)-3,6-diazabicyclo[3.2.0]heptane fumarate], in experiment [1], the minimal effective dose was more than 19 µmol/kg. In experiment [2], this compound gave an inhibition constant Ki of 0.6 nM.

With `C#Cc1cncc(N2C[C@@H]3CNC[C@@H]32)c1` [Example 68, (1S,5R)-6-(5-ethynyl-3-pyridinyl)-3,6-diazabicyclo[3.2.0]heptane fumarate], the minimal effective dose in experiment [1] was more than 19 µmol/kg. Moreover, the Ki in experiment [2] stood at 0.61 nM. Take `Clc1cc(N2C[C@H]3CNC[C@H]32)cnc1Cl` [Example 85, (1R,5S)-6-(5,6-dichloro-3-pyridinyl)-3,6-diazabicyclo[3.2.0]heptane fumarate]: in experiment [1], the minimal effective dose was more than 19 µmol/kg. The compound further registered a Ki in experiment [2] of 0.27 nM. As for `Cc1cc(N2C[C@H]3CCN[C@H]3C2)cnc1Br` [Example 60, (3aR,6aR)-5-(6-bromo-5-methyl-3-pyridinyl)octahydropyrrolo[3,4-b]pyrrole dihydrochloride], the minimal effective dose in experiment [1] worked out at 0.62 µmol/kg. This compound yielded an inhibition constant (Ki) in experiment [2] of 0.11 nM.

For `N#Cc1cncc(N2C[C@@H]3CNC[C@@H]32)c1` [Example 70, 5-[(1S,5R)-3,6-diazabicyclo[3.2.0]hept-6-yl]nicotinonitrile fumarate], the minimal effective dose in experiment [1] was more than 19 µmol/kg. For the same compound, in experiment [2], affinity was put at a Ki of 0.86 nM. `C=Cc1cc(N2C[C@H]3CCN[C@H]3C2)cnc1Br` [Example 65, (3aR,6aR)-5-(6-bromo-5-vinyl-3-pyridinyl)octahydropyrrolo[3,4-b]pyrrole dihydrochloride]: in experiment [1], the minimal effective dose is more than 19 µmol/kg. Besides, in experiment [2], the Ki is 3.1 nM.

In the case of `CCc1cncc(N2C[C@H]3CCN[C@H]3C2)c1` [Example 63, (3aR,6aR)-5-(5-ethyl-3-pyridinyl)octahydropyrrolo[3,4-b]pyrrole], the minimal effective dose in experiment [1] was more than 19 µmol/kg. This compound showed a Ki in experiment [2] of 0.56 nM. For `Cc1cc(N2C[C@H]3CNC[C@H]32)cnc1Cl` [Example 87, (1R,5S)-6-(6-chloro-5-methyl-3-pyridinyl)-3,6-diazabicyclo[3.2.0]heptane 4-methylbenzenesulfonate], in that order: 6.2 µmol/kg and 0.2 nM.

As for `c1cncc(N2CC3CNCC32)c1` (stereo not drawn) [Example 40, (cis)-6-(3′-pyridinyl)-3,6-diazabicyclo[3.2.0]heptane fumarate], the minimal effective dose in experiment [1] was found to be 1.9 µmol/kg. For the same compound, the affinity in experiment [2] corresponds to a Ki of 6.2 nM. As to `c1cncc(N2C[C@H]3CNC[C@H]32)c1` [Example 52, (1R,5S)-6-(3-pyridinyl)-3,6-diazabicyclo[3.2.0]heptane fumarate], the minimal effective dose in experiment [1] came to 19 µmol/kg. The compound also returned a Ki in experiment [2] of 1.3 nM. Turning to `N#Cc1cc(N2C[C@H]3CNC[C@H]32)cnc1Br` [Example 76, 2-bromo-5-[(1R,5S)-3,6-diazabicyclo[3.2.0]hept-6-yl]nicotinonitrile fumarate], the minimal effective dose in experiment [1] turned out to be 1.9 µmol/kg. Moreover, the Ki in experiment [2] amounted to 0.28 nM. For the compound `Clc1ccc(N2CC[C@@H]3CNC[C@@H]32)cn1` (relative stereo) [Example 16, cis-1-(6-chloro-3-pyridinyl)octahydropyrrolo[3,4-b]pyrrole hydrochloride], the Ki in experiment [2] was found to be 23 nM.

In turn, `Clc1ccc(N2C[C@H]3NCC[C@H]32)cn1` [Example 19, (1R,5R)-6-(6-chloro-3-pyridinyl)-2,6-diazabicyclo[3.2.0]heptane bis(4-methylbenzenesulfonate)] registered a Ki in experiment [2] of 576 nM. Consider `c1cncc(N2C[C@H]3CCNC[C@H]32)c1` [Example 91, (1S,6R)-8-(3-pyridinyl)-3,8-diazabicyclo[4.2.0]octane 4-methylbenzenesulfonate], for which the Ki in experiment [2] (setting [3]) is 1.1 nM. `N#Cc1cncc(N2C[C@H]3CCNC[C@H]32)c1` [Example 61, 5-[(1S,6R)-3,8-diazabicyclo[4.2.0]oct-8-yl]nicotinonitrile fumarate]: the Ki in experiment [2] came to 2.5 nM.

Regarding `Oc1cncc(N2CC[C@H]3CNC[C@H]32)c1` [Example 82, (3aS,6aS)-1-(5-hydroxy-3-pyridinyl)octahydropyrrolo[3,4-b]pyrrole dihydrochloride], in experiment [2] (setting [3]), the Ki stood at 363 nM.
